From patent publication US9981975B2, “Pyrrolotriazine compounds as tam inhibitors” (Incyte Corporation, priority 2016, dated 2018)

Experiments:
Assay type in all cases: biochemical
[1] = target: phosphor-Axl (Homo sapiens (Human), UniProt P30530); assay: TAM Enzymatic Assay (HTRF), Axl; conditions: recombinant autophosphorylated Axl, 60 min, room temperature
[2] = target: Tyro3 (Homo sapiens (Human), UniProt Q06418); assay: TAM Enzymatic Assay (HTRF), Tyro3; conditions: Tyro3, 60 min, room temperature
Sequence of Tyro3 (Q06418 41-890): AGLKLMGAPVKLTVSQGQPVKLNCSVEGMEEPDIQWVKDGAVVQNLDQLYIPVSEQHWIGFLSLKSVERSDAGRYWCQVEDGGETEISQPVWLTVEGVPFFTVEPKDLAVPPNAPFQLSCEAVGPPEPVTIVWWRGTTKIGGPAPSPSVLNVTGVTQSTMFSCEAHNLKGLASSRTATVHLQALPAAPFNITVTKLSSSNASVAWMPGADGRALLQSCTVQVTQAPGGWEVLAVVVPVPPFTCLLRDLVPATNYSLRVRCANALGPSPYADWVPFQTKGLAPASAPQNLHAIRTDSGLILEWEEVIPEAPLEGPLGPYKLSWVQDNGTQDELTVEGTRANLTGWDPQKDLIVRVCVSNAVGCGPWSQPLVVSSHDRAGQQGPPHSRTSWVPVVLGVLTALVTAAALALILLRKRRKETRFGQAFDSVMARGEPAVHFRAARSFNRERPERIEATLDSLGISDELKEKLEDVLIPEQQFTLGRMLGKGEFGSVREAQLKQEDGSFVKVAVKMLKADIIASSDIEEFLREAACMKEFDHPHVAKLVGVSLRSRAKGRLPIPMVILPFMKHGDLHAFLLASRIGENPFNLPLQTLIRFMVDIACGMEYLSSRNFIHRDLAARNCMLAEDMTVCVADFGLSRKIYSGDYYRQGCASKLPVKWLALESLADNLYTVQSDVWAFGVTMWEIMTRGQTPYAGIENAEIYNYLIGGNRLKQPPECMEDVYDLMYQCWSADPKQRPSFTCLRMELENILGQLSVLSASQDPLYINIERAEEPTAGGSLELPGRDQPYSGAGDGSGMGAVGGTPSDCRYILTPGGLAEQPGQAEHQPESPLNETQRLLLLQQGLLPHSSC
How it was run: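 HTRF kinase assay in 50 mM HEPES pH 7.5, 10 mM MgCl2, 1 mM EGTA, 0.01% NP-40, 2 mM DTT; compound in DMSO pre-dispensed, enzyme added, reaction started with substrate, 60 min at room temperature in the dark.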

[3] = target: c-Mer (Homo sapiens (Human), UniProt Q12866); assay: TAM Enzymatic Assay (HTRF), Mer; conditions: 60 min, room temperature
Sequence of c-Mer (Q12866 21-999): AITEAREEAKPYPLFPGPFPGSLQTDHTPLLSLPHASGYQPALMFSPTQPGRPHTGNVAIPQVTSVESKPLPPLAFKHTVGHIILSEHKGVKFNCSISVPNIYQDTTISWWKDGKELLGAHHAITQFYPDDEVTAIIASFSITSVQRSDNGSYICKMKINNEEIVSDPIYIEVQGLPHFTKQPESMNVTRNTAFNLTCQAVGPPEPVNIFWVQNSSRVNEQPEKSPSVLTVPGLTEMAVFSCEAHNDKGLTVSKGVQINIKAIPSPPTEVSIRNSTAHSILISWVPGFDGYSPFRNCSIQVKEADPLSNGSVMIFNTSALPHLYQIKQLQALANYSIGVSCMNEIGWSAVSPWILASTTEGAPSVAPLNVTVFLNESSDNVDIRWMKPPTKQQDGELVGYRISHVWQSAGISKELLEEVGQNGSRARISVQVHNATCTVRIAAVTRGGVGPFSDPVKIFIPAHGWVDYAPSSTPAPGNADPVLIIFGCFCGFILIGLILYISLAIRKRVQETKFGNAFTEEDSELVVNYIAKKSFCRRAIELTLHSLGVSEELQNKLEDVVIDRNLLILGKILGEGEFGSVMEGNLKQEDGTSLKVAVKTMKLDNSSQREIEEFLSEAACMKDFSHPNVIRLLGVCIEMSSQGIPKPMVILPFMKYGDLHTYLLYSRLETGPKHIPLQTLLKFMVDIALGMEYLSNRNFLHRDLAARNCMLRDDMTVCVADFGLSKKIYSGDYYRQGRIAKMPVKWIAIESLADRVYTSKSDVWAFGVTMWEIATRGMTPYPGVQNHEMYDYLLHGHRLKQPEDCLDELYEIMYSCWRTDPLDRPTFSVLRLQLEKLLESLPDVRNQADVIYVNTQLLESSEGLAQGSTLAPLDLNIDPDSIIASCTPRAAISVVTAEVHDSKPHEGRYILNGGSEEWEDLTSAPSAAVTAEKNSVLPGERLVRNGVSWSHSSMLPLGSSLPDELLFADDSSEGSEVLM
Protocol: The kinase assay buffer contained 50 mM HEPES, pH7.5, 10 mM MgCl2, 1 mM EGTA, 0.01% NP-40 and 2 mM DTT. 0.1 ul test compounds dissolved in DMSO were transferred from compound plates to white 384-well assay plates (Greiner […] plates). […] 4 ul enzyme solution (or assay buffer for the enzyme blank) was added to the appropriate wells in each plate, and then 4 ul/well substrate solution was added to initiate the reaction. The plate was protected from light and incubated at room temperature for 60 min. […] The plate was incubated for 1 h at room temperature, and HTRF (homogenous time resolved fluorescence) signal was measured on a PHERAstar FS plate reader (BMG labtech). Percentage of inhibition was calculated for each concentration and IC50 value was generated from curve fitting with GraphPad Prism software.

Sequence of phosphor-Axl (P30530 26-894): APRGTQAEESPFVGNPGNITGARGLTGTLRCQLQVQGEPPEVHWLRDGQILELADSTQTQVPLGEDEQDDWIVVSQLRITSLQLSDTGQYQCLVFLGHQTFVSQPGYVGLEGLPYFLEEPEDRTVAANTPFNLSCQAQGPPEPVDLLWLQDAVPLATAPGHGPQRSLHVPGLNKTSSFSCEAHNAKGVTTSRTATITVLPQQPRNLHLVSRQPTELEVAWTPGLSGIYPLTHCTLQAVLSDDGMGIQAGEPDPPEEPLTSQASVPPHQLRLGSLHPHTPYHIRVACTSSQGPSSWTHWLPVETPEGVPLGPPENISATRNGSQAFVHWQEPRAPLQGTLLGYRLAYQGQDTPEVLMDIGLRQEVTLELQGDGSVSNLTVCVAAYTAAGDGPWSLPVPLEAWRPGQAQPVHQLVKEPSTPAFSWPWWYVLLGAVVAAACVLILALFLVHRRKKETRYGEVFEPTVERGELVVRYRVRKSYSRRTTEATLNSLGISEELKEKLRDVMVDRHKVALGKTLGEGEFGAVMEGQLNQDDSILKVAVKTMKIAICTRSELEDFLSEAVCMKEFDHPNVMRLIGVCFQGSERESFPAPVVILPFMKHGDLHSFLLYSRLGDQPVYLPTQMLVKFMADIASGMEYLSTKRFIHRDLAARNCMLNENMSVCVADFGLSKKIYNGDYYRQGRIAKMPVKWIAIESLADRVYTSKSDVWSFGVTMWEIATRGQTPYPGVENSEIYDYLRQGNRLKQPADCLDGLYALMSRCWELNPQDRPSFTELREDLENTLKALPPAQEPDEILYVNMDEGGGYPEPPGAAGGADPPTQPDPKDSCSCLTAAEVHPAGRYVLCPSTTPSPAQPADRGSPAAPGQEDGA

Row | IC50 [1] | IC50 [2] | IC50 [3] | Compound
1 | ≤ 5 nM | > 100 nM | ≤ 5 nM | Cc1c(Br)cc(C(=O)Nc2ccc(-c3cc(C4CCN(C(=O)C(C)C)CC4)n4ncnc(N)c34)cc2)c(=O)n1-c1cccnc1 [Example 130, N-(4-(4-Amino-7-(1-isobutyrylpiperidin-4-yl)pyrrolo[2,1-f][1,2,4]triazin-5-yl)phenyl)-5-bromo-6-methyl-2-oxo-2H-[1,3′-bipyridine]-3-carboxamide]
2 | ≤ 5 nM | 10 to 100 nM | ≤ 5 nM | CC(C)n1cc(C(=O)Nc2ccc(-c3cc(C4CCN(C(=O)N(C)C)CC4)n4ncnc(N)c34)cc2)c(=O)n(-c2cccc(F)c2)c1=O [Example 70, N-(4-(4-Amino-7-(1-(dimethylcarbamoyl)piperidin-4-yl)pyrrolo[1,2-f][1,2,4]triazin-5-yl)phenyl)-3-(3-fluorophenyl)-1-isopropyl-2,4-dioxo-1,2,3,4-tetrahydropyrimidine-5-carboxamide]
3 | ≤ 5 nM | 10 to 100 nM | ≤ 5 nM | COC(=O)N1CCC(c2cc(-c3ccc(NC(=O)c4cccn(-c5ccccc5)c4=O)cc3F)c3c(N)ncnn23)CC1 [Example 38, Methyl 4-[4-amino-5-(2-fluoro-4-{[(2-oxo-1-phenyl-1,2-dihydropyridin-3-yl)carbonyl]amino}phenyl)pyrrolo[2,1-f][1,2,4]triazin-7-yl]piperidine-1-carboxylate]
4 | ≤ 5 nM | > 100 nM | ≤ 5 nM | Cc1cc(C(=O)Nc2ccc(-c3cc(C4CCN(C(=O)C(C)C)CC4)n4ncnc(N)c34)cc2)c(=O)n(-c2ccccc2)c1-c1cccnc1 [Example 106, N-(4-(4-Amino-7-(1-isobutyrylpiperidin-4-yl)pyrrolo[2,1-f][1,2,4]triazin-5-yl)phenyl)-3-methyl-6-oxo-1-phenyl-1,6-dihydro-[2,3′-bipyridine]-5-carboxamide]
5 | ≤ 5 nM | 10 to 100 nM | ≤ 5 nM | COC(=O)N1CCC(c2cc(-c3ccc(NC(=O)c4cccn(-c5ccc(F)cc5)c4=O)cc3)c3c(N)ncnn23)CC1 [Example 37, Methyl 4-{4-amino-5-[4-({[1-(4-fluorophenyl)-2-oxo-1,2-dihydropyridin-3-yl]carbonyl}amino)phenyl]pyrrolo[2,1-f][1,2,4]triazin-7-yl}piperidine-1-carboxylate]
6 | ≤ 5 nM | > 100 nM | ≤ 5 nM | Cc1c(-c2ncco2)cc(C(=O)Nc2ccc(-c3cc(C4CCN(C(=O)C(C)C)CC4)n4ncnc(N)c34)cc2)c(=O)n1-c1ccccn1 [Example 126, N-(4-(4-Amino-7-(1-isobutyrylpiperidin-4-yl)pyrrolo[2,1-f][1,2,4]triazin-5-yl)phenyl)-6-methyl-5-(oxazol-2-yl)-2-oxo-2H-[1,2′-bipyridine]-3-carboxamide]
7 | ≤ 5 nM | > 100 nM | ≤ 5 nM | CC(C)C(=O)N1CCC(c2cc(-c3ccc(NC(=O)c4cn(C(C)C)c(=O)n(-c5cnn(C)c5)c4=O)cc3)c3c(N)ncnn23)CC1 [Example 87, N-(4-(4-Amino-7-(1-isobutyrylpiperidin-4-yl)pyrrolo[2,1-f][1,2,4]triazin-5-yl)phenyl)-1-isopropyl-3-(1-methyl-1H-pyrazol-4-yl)-2,4-dioxo-1,2,3,4-tetrahydropyrimidine-5-carboxamide]
8 | ≤ 5 nM | 10 to 100 nM | ≤ 5 nM | Nc1ncnn2c(C3CCNCC3)cc(-c3ccc(NC(=O)c4cccn(-c5ccccc5)c4=O)cc3)c12 [Example 32, N-[4-(4-Amino-7-piperidin-4-ylpyrrolo[2,1-f][1,2,4]triazin-5-yl)phenyl]-2-oxo-1-phenyl-1,2-dihydropyridine-3-carboxamide]
9 | ≤ 5 nM | 10 to 100 nM | ≤ 5 nM | Nc1ncnn2c(C3CCNCC3)cc(-c3ccc(NC(=O)c4cccn(-c5ccc(F)cc5)c4=O)cc3)c12 [Example 33, N-[4-(4-Amino-7-piperidin-4-ylpyrrolo[2,1-f][1,2,4]triazin-5-yl)phenyl]-1-(4-fluorophenyl)-2-oxo-1,2-dihydropyridine-3-carboxamide]
10 | ≤ 5 nM | > 100 nM | ≤ 5 nM | CCn1cc(C(=O)Nc2ccc(-c3cc(C4CCN(C(=O)N(C)C)CC4)n4ncnc(N)c34)cc2)c(=O)n(-c2ccc(F)cc2)c1=O [Example 67, N-(4-(4-Amino-7-(1-(dimethylcarbamoyl)piperidin-4-yl)pyrrolo[1,2-f][1,2,4]triazin-5-yl)phenyl)-1-ethyl-3-(4-fluorophenyl)-2,4-dioxo-1,2,3,4-tetrahydropyrimidine-5-carboxamide]
11 | ≤ 5 nM | > 100 nM | ≤ 5 nM | COCc1c(Br)cc(C(=O)Nc2ccc(-c3cc(C4CCN(C(=O)C(C)C)CC4)n4ncnc(N)c34)cc2)c(=O)n1-c1ccccc1 [Example 136, N-(4-(4-Amino-7-(1-isobutyrylpiperidin-4-yl)pyrrolo[2,1-f][1,2,4]triazin-5-yl)phenyl)-5-bromo-6-(methoxymethyl)-2-oxo-1-phenyl-1,2-dihydropyridine-3-carboxamide]
12 | ≤ 5 nM | 10 to 100 nM | ≤ 5 nM | CS(=O)(=O)N1CCC(c2cc(-c3ccc(NC(=O)c4cccn(-c5ccccc5)c4=O)cc3F)c3c(N)ncnn23)CC1 [Example 42]
13 | ≤ 5 nM | 10 to 100 nM | ≤ 5 nM | CC(C)C(=O)N1CCC(c2cc(-c3ccc(NC(=O)c4cc5c(n(-c6ccccc6)c4=O)CCCC5=O)cc3)c3c(N)ncnn23)CC1 [Example 74, N-(4-(4-Amino-7-(1-isobutyrylpiperidin-4-yl)pyrrolo[1,2-f][1,2,4]triazin-5-yl)phenyl)-2,5-dioxo-1-phenyl-1,2,5,6,7,8-hexahydroquinoline-3-carboxamide]
14 | ≤ 5 nM | > 100 nM | ≤ 5 nM | Cc1c(-c2ncco2)c(=O)c(C(=O)Nc2ccc(-c3cc(C4CCN(C(=O)C(C)C)CC4)n4ncnc(N)c34)cc2)cn1C1CC1 [Example 119, N-(4-(4-Amino-7-(1-isobutyrylpiperidin-4-yl)pyrrolo[2,1-f][1,2,4]triazin-5-yl)phenyl)-1-cyclopropyl-6-methyl-5-(oxazol-2-yl)-4-oxo-1,4-dihydropyridine-3-carboxamide]
15 | ≤ 5 nM | 10 to 100 nM | ≤ 5 nM | CC(C)C(=O)N1CCC(c2cc(-c3ccc(NC(=O)c4cc5c(n(-c6cccnc6)c4=O)CC(C)(C)CC5=O)cc3)c3c(N)ncnn23)CC1 [Example 114, N-(4-(4-Amino-7-(1-isobutyrylpiperidin-4-yl)pyrrolo[1,2-f][1,2,4]triazin-5-yl)phenyl)-7,7-dimethyl-2,5-dioxo-1-(pyridin-3-yl)-1,2,5,6,7,8-hexahydroquinoline-3-carboxamide]
16 | ≤ 5 nM | > 100 nM | ≤ 5 nM | Cc1c(C#N)cc(C(=O)Nc2ccc(-c3cc(C4CCN(C(=O)C(C)C)CC4)n4ncnc(N)c34)cc2)c(=O)n1-c1ccccc1 [Example 111, N-(4-(4-Amino-7-(1-isobutyrylpiperidin-4-yl)pyrrolo[2,1-f][1,2,4]triazin-5-yl)phenyl)-5-cyano-6-methyl-2-oxo-1-phenyl-1,2-dihydropyridine-3-carboxamide]
17 | ≤ 5 nM | 10 to 100 nM | ≤ 5 nM | Nc1ncnn2c(C3CCN(CCO)CC3)cc(-c3ccc(NC(=O)c4cccn(-c5ccccc5)c4=O)cc3F)c12 [Example 54]
18 | ≤ 5 nM | ≤ 5 nM | ≤ 5 nM | CC(C)n1cc(C(=O)Nc2ccc(-c3cc(C4CCC(N(C)C)CC4)n4ncnc(N)c34)cc2)c(=O)n(-c2ccccc2)c1=O (stereo not drawn) [Example 93, N-(4-(4-Amino-7-(4-(dimethylamino)cyclohexyl)pyrrolo[2,1-f][1,2,4]triazin-5-yl)phenyl)-1-isopropyl-2,4-dioxo-3-phenyl-1,2,3,4-tetrahydropyrimidine-5-carboxamide]
19 | ≤ 5 nM | 10 to 100 nM | ≤ 5 nM | COCCN1CCC(c2cc(-c3ccc(NC(=O)c4cccn(-c5ccccc5)c4=O)cc3F)c3c(N)ncnn23)CC1 [Example 50, N-(4-{4-Amino-7-[1-(2-methoxyethyl)piperidin-4-yl]pyrrolo[2,1-f][1,2,4]triazin-5-yl}-3-fluorophenyl)-2-oxo-1-phenyl-1,2-dihydropyridine-3-carboxamide]
20 | ≤ 5 nM | 10 to 100 nM | ≤ 5 nM | CN1CCC(c2cc(-c3ccc(NC(=O)c4cccn(-c5ccccc5)c4=O)cc3F)c3c(N)ncnn23)CC1 [Example 22, N-{4-[4-Amino-7-(1-methylpiperidin-4-yl)pyrrolo[2,1-f][1,2,4]triazin-5-yl]-3-fluorophenyl}-2-oxo-1-phenyl-1,2-dihydropyridine-3-carboxamide]
21 | ≤ 5 nM | > 100 nM | ≤ 5 nM | CCn1cc(C(=O)Nc2ccc(-c3cc(C4CCN(C(=O)N5CCOCC5)CC4)n4ncnc(N)c34)cc2)c(=O)n(-c2ccc(F)cc2)c1=O [Example 68, N-(4-(4-Amino-7-(1-(morpholine-4-carbonyl)piperidin-4-yl)pyrrolo[1,2-f][1,2,4]triazin-5-yl)phenyl)-1-ethyl-3-(4-fluorophenyl)-2,4-dioxo-1,2,3,4-tetrahydropyrimidine-5-carboxamide]
